This note sets out measurements from US10683273B2, “Compounds as DNA probes, methods and applications thereof” (JAWAHARLAL NEHRU CENTRE FOR ADVANCED SCIENTIFIC RESEARCH, priority 2015, dated 2020).

The test system of one data set is RNA. The data set is described as follows: Fluorescence response with RNA. The data set is classed as binding. The note with it: QCy-DT 2 μM, RNA 4 μM, Tris-HCl. The protocol: All the chemicals, reagents, single-stranded oligos (dA20, dT20, dG20, dC20), self-complementary oligos {d(ATAT)5, (D1)mix, Drew-AT, Calf-Thymus DNA (CT-DNA), (DM1, DM2, DM3, DM4, DM5, DM6 and DM7)}, RNA, were purchased from Sigma-Aldrich. ^1H and ^13C NMR spectra were recorded on a Bruker AV-400 MHz spectrometer with chemical shifts reported as parts per million (ppm) (in DMSO-d6, tetramethylsilane as an internal standard) at 20° C. UV-vis absorption and emission spectra were measured in quartz cuvettes of 1 cm path length. High resolution mass spectra (HRMS) were obtained on Agilent Technologies 6538 UHD Accurate-Mass Q-TOF LC/MS spectrometer. All biophysical studies (UV-vis, fluorescence and Cirular dichroism) are carried out at the concentration 0-5 μM of probe, volume=500 μL, temperature=25° C. and time of incubation=2 minutes. […]
The UV-vis absorption and emission spectra are recorded on Agilent Technologies Cary series UV-vis-NIR absorbance and Cary eclipse fluorescence spectrophotometers, respectively. […] Absorption is monitored at 260 nm with regular 5° C. intervals. Melting temperatures (Tm) of DNA samples are calculated from the first derivatives of the absorption vs. temperature curves (thermal denaturation or melting curves) obtained by monitoring at 260 nm. […]

Data set [1] in a line: Fluorescence quantum yield in absence of DNA. It counts as physicochemical. On the procedure:
Cresyl violet perchlorate in ethanol (ϕ=0.54) is used as the standard for the fluorescence quantum yield calculation using the absorption of the test sample. The emission spectral area is obtained in the 550-800 nm regions. Dilute solutions (10^−6 M) are used to minimize reabsorption effects of the dyes. Quantum yields are determined using the following equation, ϕs=ϕr(Fs/Fr)×(Ar/As)×(ns^2/nr^2)
Where, ϕr and ϕs are the quantum yield of reference and sample respectively, Fr and Fs are the integrated intensities (areas) of standard and sample spectra, nr and ns are the refractive indices of the reference and sample solution, Ar and As are the absorbance intensities of reference and sample respectively.

Data set [2] concerns DNA containing 5′-CAATTG-3′ core. Kind of data set: Fluorescence enhancement, local variations 5′-X(AATT)Y-3′. It counts as binding. The protocol:
(§1) All the chemicals, reagents, single-stranded oligos (dA20, dT20, dG20, dC20), self-complementary oligos {d(ATAT)5, (D1)mix, Drew-AT, Calf-Thymus DNA (CT-DNA), (DM1, DM2, DM3, DM4, DM5, DM6 and DM7)}, RNA, were purchased from Sigma-Aldrich. ^1H and ^13C NMR spectra were recorded on a Bruker AV-400 MHz spectrometer with chemical shifts reported as parts per million (ppm) (in DMSO-d6, tetramethylsilane as an internal standard) at 20° C. UV-vis absorption and emission spectra were measured in quartz cuvettes of 1 cm path length. High resolution mass spectra (HRMS) were obtained on Agilent Technologies 6538 UHD Accurate-Mass Q-TOF LC/MS spectrometer. All biophysical studies (UV-vis, fluorescence and Cirular dichroism) are carried out at the concentration 0-5 μM of probe, volume=500 μL, temperature=25° C. and time of incubation=2 minutes. HeLa cells and MCF7 cells used in the biological studies are obtained from “Molecular reproduction, development and genetics lab, Indian institute of science, Bangalore, India”
(§2) Stock solutions of QCy-DT are prepared in double-distilled (dd) water in the order of 10^−3 M and stored at about −10° C. […]
(§3) The UV-vis absorption and emission spectra are recorded on Agilent Technologies Cary series UV-vis-NIR absorbance and Cary eclipse fluorescence spectrophotometers, respectively. […] Absorption is monitored at 260 nm with regular 5° C. intervals. Melting temperatures (Tm) of DNA samples are calculated from the first derivatives of the absorption vs. temperature curves (thermal denaturation or melting curves) obtained by monitoring at 260 nm.
(§4) To understand finer details of the interactions of QCy-DT with local variations around 5′-AATT-3′ sequence in the minor groove of DNA duplex, fluorescence studies are performed in the presence of DNA containing core hexanucleotide sequences such as 5′-X(AATT)Y-3′ (where X=A/T/G/C and Y is complementary base of X) (FIG. 5a). […] Remarkably, enormous fluorescence enhancement is observed in the presence of DNA with 5′-AAATTT-3′ core, which is ˜4-folds higher than the DNA with 5′-AATT-3′ core sequence alone. […]

The next data set relates to 5′-TAATTA-3′. Described as above. The data set is classed as binding. The note with it: folds lesser than 5′-AATT-3′ sequence. The protocol: as §1, §2, §3, §4
Data set [3] deals with DNA containing 5′-GAATTC-3′ core. Described as above. It counts as binding. The protocol:
as §1, §2, §3, §4

Another data set concerns MCF-7 cells. Kind of data set: Photostability assay by confocal fluorescence microscopy. The data set is classed as cell-based. Conditions: 2 μM. On the procedure:
MCF-7 Cells are propagated on 20 mm cover slips in a 6-well plate in DMEM medium supplemented with 10% fetal bovine serum at about 37° C. in a humidified atmosphere containing 5% CO2 till 80% confluency is achieved. Cells are incubated for a duration of about 60 min with probe QCy-DT (resuspended in Mili-Q water) at 2 μM concentration in a humidified CO2 incubator at about 37° C. Following treatment, the photostability of QCy-DT is measured by continuous scanning using OLYMPUS FV1000 confocal fluorescence microscope, under 568 nm line of an Argon ion laser for different time durations of about 10 sec, 120 sec and 300 sec. Olympus Fluoview software is used to quantitatively investigate the intensity of signals of QCy-DT at zero time points and after photo bleaching. The data is plotted with mean and standard error.

Turning to `C[n+]1c(/C=C/c2ccc(O)c(/C=C/c3sc4ccccc4[n+]3C)c2)sc2ccccc21` [QCy-DT, quinone cyanine-dithiazole], in the data set on RNA, the fluorescence response entry was “very weak response”. Moreover, the “Quantum Yield (ΦF)” value is reported as roughly 0.07 in data set [1] (Glycerol) and 0.0039 in data set [1] (Tris-HCl buffer 100 mM, pH 7.4, probe alone). Further, the fluorescence enhancement result in data set [2] and in data set [3] was “very weak fluorescence enhancement” in each case. In the data set with 5′-TAATTA-3′, the “fluorescence enhancement with T at X in 5′-X(AATT)Y-3′, lesser than 5′-AATT-3′” value is roughly 1.5 fold. In the data set on MCF-7 cells (MCF-7, 120-second argon ion laser excitation at 568 nm), this compound yielded a remainder fluorescence intensity of roughly 80%. In addition, the fluorescent signal intensity in the data set with MCF-7 cells (MCF-7, 300 sec excitation at 568 nm) is reported as roughly 50%.
